Source: patent US4948783A, “Anticariogenic or antiperidontitic method” (Kabushiki Kaisya Advance Kaihatsu kenkyujo, priority 1985, dated 1990)
≈ marks a conversion by molar mass, not a printed value. Like-named read-outs stand apart in the source and are kept apart here. Each block holds one molecule with its values, some of them ahead of it.

Experiments:
[1] = test system: S. mutans; experiment: Antibacterial activity (MIC) against S. mutans; format: cell-based, Streptococcus mutans (isolated from a human oral cavity); settings: Streptococcus mutans
Protocol: (§1) A sample of vitamin L2 (methylthioadenosine) (Sigma Chemical Company) having the chemical formula shown below was dissolved in water, [drawing 3] the pH was adjusted to 7, and sterilization was carried out by autoclaving at 121° C. for 15 min or by filtration with membrane filters, to form a sterile solution. This sample solution mentioned above was added into a sterile basal medium (refer to Table 1) together with sterile distilled water to adjust the concentration of the sample. To this medium, S. mutans causing dental caries, Actinomyces naeslundii and A. viscosus causing dental caries and periondontitis, and B. gingivalis and Fusobacterium nucleatum causing periodontitis, each bacterium being isolated from a human oral cavity, were repectively inoculated. After incubation at 37° C. for 24 hrs, the MIC (minimal growth-inhibitoryconcentration: μg/ml) against each bacterium was determined. As a control, a 0.85% NaCl solution was used instead of the sample solution of vitamin L2. Furthermore, the effect of vitamin L2 on intestinal bacteria such as S. faecium, S. faecalis, Bifidobacterium bifidum, Lactobacillus acidophilus, and L. fermentum, isolated from the feces of healthy humans, was also determined by the same procedures.

[2] = test system: B. gingivalis; experiment: Antibacterial activity (MIC) against B. gingivalis; format: cell-based, Bacteroides gingivalis (isolated from a human oral cavity); settings: for MIC: Porphyromonas gingivalis
Protocol: as §1

[3] = test system: A. viscosus; experiment: Antibacterial activity (MIC) against A. viscosus; format: cell-based, A. viscosus (isolated from a human oral cavity); settings: Actinomyces viscosus, Brain heart infusion broth, 37° C., 24 hrs, read-out: MIC (minimal growth-inhibitory concentration)
Protocol: as §1

[4] = test system: S. faecium; experiment: Effect on intestinal bacteria (MIC), S. faecium; format: cell-based, S. faecium (isolated from the feces of healthy humans); settings: Enterococcus faecium, Todd-Hewitt broth, 37° C., 24 hrs, read-out: MIC (minimal growth-inhibitory concentration)
Protocol: as §1

[5] = test system: S. faecalis; experiment: Effect on intestinal bacteria (MIC), S. faecalis; format: cell-based, S. faecalis (isolated from the feces of healthy humans); settings: Enterococcus faecalis, Todd-Hewitt broth, 37° C., 24 hrs, read-out: MIC (minimal growth-inhibitory concentration)
Protocol: as §1

[6] = test system: A. naeslundii; experiment: Antibacterial activity (MIC) against A. naeslundii; format: cell-based, Actinomyces naeslundii (isolated from a human oral cavity); settings: Actinomyces naeslundii, Brain heart infusion broth, 37° C., 24 hrs, read-out: MIC (minimal growth-inhibitory concentration)
Protocol: as §1

[7] = test system: F. nucleatum; experiment: Antibacterial activity (MIC) against F. nucleatum; format: cell-based, Fusobacterium nucleatum (isolated from a human oral cavity); settings: Fusobacterium nucleatum, GAM broth, 37° C., 24 hrs, read-out: MIC (minimal growth-inhibitory concentration)
Protocol: as §1

[8] = test system: L. fermentum; experiment: Effect on intestinal bacteria (MIC), L. fermentum; format: cell-based, L. fermentum (isolated from the feces of healthy humans); settings: Limosilactobacillus fermentum, Rogosa broth, 37° C., 24 hrs, read-out: MIC (minimal growth-inhibitory concentration)
Protocol: as §1

[9] = test system: Bif. bifidum; experiment: Effect on intestinal bacteria (MIC), Bif. bifidum; format: cell-based; settings: Bifidobacterium bifidum, GAM broth, 37° C., 24 hrs, read-out: MIC (minimal growth-inhibitory concentration)
Protocol: as §1

[10] = test system: L. acidophilus; experiment: Effect on intestinal bacteria (MIC), L. acidophilus; format: cell-based; settings: Lactobacillus acidophilus, Rogosa broth, 37° C., 24 hrs, read-out: MIC (minimal growth-inhibitory concentration)
Protocol: as §1

[11] = 24 h, S. mutans, same procedures as in Example 1, read-out: MIC, S. mutans (Table 3)
[12] = 24 h, B. gingivalis, same procedures as in Example 1, read-out: MIC, B. gingivalis (Table 3)
[13] = 24 h, read-out: MIC, S. mutans (Table 3)

MIC [1, 11]: 1000 µg/mL (≈ 2800 µM) | MIC [2, 12]: 250 µg/mL (≈ 700 µM)
Structure (SMILES): OC[C@H]1O[C@@H](n2cnc3c(NCc4ccccc4)ncnc32)[C@H](O)[C@@H]1O [Material (3), N-6 benzyladenosine]

MIC [3]: 63 µg/mL (≈ 212 µM) | MIC [4]: > 1000 µg/mL | MIC [5]: > 1000 µg/mL | MIC [6]: 32 µg/mL (≈ 108 µM) | MIC [7]: 500 µg/mL (≈ 1680 µM) | MIC [8]: 1000 µg/mL (≈ 3360 µM) | MIC [9]: > 1000 µg/mL | MIC ([1]; S. mutans, Todd-Hewitt broth, 37° C., 24 hrs, read-out: MIC (minimal growth-inhibitory concentration)): 63 µg/mL (≈ 212 µM) | MIC ([2]; B. gingivalis, GAM broth, 37° C., 24 hrs, read-out: MIC (minimal growth-inhibitory concentration)): 125 µg/mL (≈ 420 µM) | MIC [10]: > 1000 µg/mL
Structure (SMILES): CSC[C@H]1O[C@@H](n2cnc3c(N)ncnc32)[C@H](O)[C@@H]1O [vitamin L2, methylthioadenosine]

Structure (SMILES): Nc1ncnc2c1ncn2[C@@H]1O[C@H](CO)[C@@H](O)[C@@H]1O [Material (7), spongoadenosine]
MIC [1, 13]: 1500 µg/mL (≈ 5610 µM) | MIC ([2]; 24 h, read-out: MIC, B. gingivalis (Table 3)): 16 µg/mL (≈ 59.9 µM)

MIC [1, 11]: 250 µg/mL (≈ 875 µM) | MIC [2, 12]: 125 µg/mL (≈ 438 µM)
Structure (SMILES): Nc1ncnc2c1ncn2[C@@H]1O[C@H](CCl)[C@@H](O)[C@H]1O [Material (1), 5'-deoxy-5'-chloroadenosine]

MIC [1, 11]: 1000 µg/mL (≈ 3310 µM) | MIC [2, 12]: 250 µg/mL (≈ 829 µM)
Structure (SMILES): Nc1nc(Cl)nc2c1ncn2[C@@H]1O[C@H](CO)[C@@H](O)[C@H]1O [Material (4), 2-chloroadenosine]

Structure (SMILES): Nc1ncnc2c1ncn2[C@@H]1O[C@H](CO)[C@@H](O)[C@H]1O [Material (6), adenosine]
MIC [1, 13]: 1000 µg/mL (≈ 3740 µM) | MIC, B. gingivalis (Table 3) ([2]; B. gingivalis, same procedures as in Example 1): No inhibition

MIC [1, 11]: 1000 µg/mL (≈ 3980 µM) | MIC [2, 12]: 125 µg/mL (≈ 498 µM)
Structure (SMILES): C[C@H]1O[C@@H](n2cnc3c(N)ncnc32)[C@H](O)[C@@H]1O [Material (8), 5'-deoxyadenosine]

MIC [1, 11]: 1500 µg/mL (≈ 4420 µM) | MIC [2, 12]: 250 µg/mL (≈ 737 µM)
Structure (SMILES): CC(C)CSC[C@H]1O[C@@H](n2cnc3c(N)ncnc32)[C@H](O)[C@@H]1O [Material (5), (5'-deoxy) isobutylthioadenosine]

MIC [1, 11]: 1000 µg/mL (≈ 3560 µM) | MIC [2, 12]: 250 µg/mL (≈ 889 µM)
Structure (SMILES): CNc1ncnc2c1ncn2[C@@H]1O[C@H](CO)[C@@H](O)[C@H]1O [Material (2), N-6 methyladenosine]
